Tests used:
mice [1] = experiment: prepulse inhibition (PPI) test; type: in vivo; conditions: amylin at 10 mg/kg, haloperidol at 1 mg/kg; all prepulse levels (74, 78, and 82 dB); FIG. 5
Text: The prepulse inhibition (PPI) test measures the reflex response to externally applied auditory stimulation (acoustic startle response) and is related to the deficiency in sensory-motor gating capacity seen in schizophrenia. The acoustic startle reflex is a very basic response to strong exteroceptive stimuli and is widely used to assess sensorimotor reactivity in animals and humans. A weak auditory stimulus (prepulse, 74-82 dB) given prior to the strong acoustic stimulus (120 dB) blunts the startle response. This blunting of the startle response is referred to as prepulse inhibition. See, for example, Conti et al (2005) Behavioral Neuroscience 119: 1052-1060. Antipsychotics increase the ability of the prepulse stimulus to blunt the startle response to the strong stimulus. Some psychotomimetic agents, such as phencyclidine (PCP) and ketamine, can actually reduce the percent prepulse inhibition and stimulate a psychotic-like state in animals, which can be antagonized by antipsychotic agents.
Mice were injected with the test agent (rat amylin at 0.1, 1.0 or 10 mg/kg, or vehicle) […] prior to the test or with haloperidol at 1 mg/kg 30 minutes prior to the test. The mice were placed into an animal holder and the holder placed onto a transducer platform in an acoustic chamber. […] The amount of the animal's “reaction” to the strong stimulus was recorded. […]

treated test animals = conditions: cited from earlier work
mice [2] = experiment: marble burying; type: in vivo
Procedure: To confirm the interpretation of the findings outlined under Example 1, a variety of animal behavior assays were performed to test for anxiolytic, antidepressant, and antipsychotic effects of amylin administration. […] These specific behavioral tests are known to be sensitive to anxiolytic, antidepressant, or antipsychotic drugs. For these assays, rat amylin was administered to mice at doses ranging from 0.1 to 10 mg/kg, intraperitoneally or via a subcutaneously implanted osmotic pump (ALZET®) containing vehicle or rat amylin, and their performance in the assay was assessed.
Marble burying is used as a model for both anxiety and obsessive-compulsive disorder. See, for example, Chaki et al. (2003) J. Pharmacol. Exp. Ther. 304:818-826. Anxiolytics suppress marble burying activity. Mice were injected with the test agent (rat amylin at 0.1, 1.0 or 10 mg/kg, […] buspirone, or vehicle) 15-30 minutes prior to the test. Mice were then placed individually in clean cages containing 5-cm of hard wood bedding and 20 marbles spaced evenly in rows of five. The number of marbles buried in 30 minutes was recorded. […] Buspirone is a partial 5-HT1A agonist and an known anxiolytic agent.

[3] = compared to human amylin; cited from earlier work
[4] = adsorption onto glass container in liquid form; type: physicochemical
mice [5] = experiment: novel object recognition; type: in vivo; conditions: rolipram 0.1 mg/kg IP 30 minutes prior to training; test 24 hours later; FIG. 8
Procedure: Since cognitive impairment is associated with psychoses, the effect of amylin administration on novel object recognition was examined. The novel object recognition task was used to measure working memory. See, for example, Miyamoto et al (2005) J. Neuroscience 25:1826-1835. Generally, animals spend less time exploring a previously presented object and more time exploring a novel object when both are presented together. Mice were injected IP with the test agent (rat amylin at 1.0 or 10 mg/kg, 0.1 mg/kg rolipram, or vehicle) 30 minutes prior to the training session. In the training, the mouse was allowed to explore two novel objects placed in the center of an open field. The time spent exploring each object was recorded. The objects differed in color, shape, and texture. Twenty-four hours after the training session, the mouse was placed back in the same open field in which one of the now familiar objects used in the training session was replaced by a novel object. The time spent exploring each object was again recorded. The memory index (or discrimination index) is the time spent exploring the novel object over the total time spent exploring both the novel and familiar objects (times 100). Results of this assay are shown in FIG. 8 where * is P<0.05 vs. vehicle.

mice [6] = conditions: mouse, in vivo
Procedure: The PCP-induced locomotion test is used with the open field activity chambers and measures locomotion, rearing, and stereotypic activity under amphetamine/PCP-induced conditions. The test has predictive validity for some antipsychotic drugs that normalize the hyperactivity and stereotypic behavior seen with amphetamine and PCP. See, for example, Williams et al. (2006) Prog. Neuropsychopharmacol. Biol. Psychiatry 30:239-243. Mice were injected with the test agent (rat amylin at 0.1, 1.0 or 10 mg/kg, 3 mg/kg clozapine (CZP), or vehicle) 15-30 minutes prior injection with 5 mg/kg PCP. The animals were then placed in the center of an open field and activity was recorded for 60 minutes. […] CZP is an atypical, second generation antipsychotic drug has a mixed receptor profile, including the dopamine receptor.

[7] = weight gain induced by clozapine; type: in vivo, rats; conditions: clozapine 0.025 and 0.25 mg/kg/day, s.c. osmotic pumps, 4 weeks; diet 58% kcal from fat; FIG. 7A
Procedure: The effect of amylin administration on weight gain induced by the second generation antipsychotic clozapine was examined. Adult, male Sprague-Dawley® rats (diet=58% kcal from fat) were implanted subcutaneously in the interscapular region with osmotic pumps that continuously delivered vehicle or drug for 4 weeks. In one experiment, rats were treated with vehicle or clozapine (0.025 and 0.25 mg/kg/day).

Compound: O=C(CCCN1CCC(O)(c2ccc(Cl)cc2)CC1)c1ccc(F)cc1 [haloperidol]
- percent of prepulse inhibition (mice [1]): significantly increased the percent of prepulse inhibition

Compound: des-^1Lys^18Arg^25,28Pro-h-amylin (CNTATCATQRLANFLVRSSNNFGPILPSTNVGSNTY) [human amylin analog of formula I]
- amylin activity in vivo (treated test animals): provoking marked hyperlactemia followed by hyperglycemia

Compound: O=C1CC2(CCCC2)CC(=O)N1CCCCN1CCN(c2ncccn2)CC1 [buspirone]
- reduction in marble burying, significance (mice [2]; amylin at 10 mg/kg, buspirone at 20 mg/kg, P<0.05): statistically significant
- number of marbles buried in 30 minutes (mice [2]; rat amylin 0.1, 1.0 or 10 mg/kg, buspirone 20/kg, 15-30 minutes prior, FIG. 3): reduced the number of marbles buried

Compound: CC[C@H](C)[C@H](NC(=O)[C@@H]1CCCN1C(=O)CNC(=O)[C@H](Cc1ccccc1)NC(=O)[C@H](CC(N)=O)NC(=O)[C@H](CC(N)=O)NC(=O)[C@H](CO)NC(=O)[C@H](CO)NC(=O)[C@H](Cc1c[nH]cn1)NC(=O)[C@@H](NC(=O)[C@H](CC(C)C)NC(=O)[C@H](Cc1ccccc1)NC(=O)[C@H](CC(N)=O)NC(=O)[C@H](C)NC(=O)[C@H](CC(C)C)NC(=O)[C@H](CCCNC(=N)N)NC(=O)[C@H](CCC(N)=O)NC(=O)[C@@H](NC(=O)[C@H](C)NC(=O)[C@@H]1CSSC[C@H](NC(=O)[C@@H](N)CCCCN)C(=O)N[C@@H](CC(N)=O)C(=O)N[C@@H]([C@@H](C)O)C(=O)N[C@@H](C)C(=O)N[C@@H]([C@@H](C)O)C(=O)N1)[C@@H](C)O)C(C)C)C(=O)N[C@@H](CC(C)C)C(=O)N1CCC[C@H]1C(=O)N1CCC[C@H]1C(=O)N[C@H](C(=O)N[C@@H](CC(N)=O)C(=O)N[C@H](C(=O)NCC(=O)N[C@@H](CO)C(=O)N[C@@H](CC(N)=O)C(=O)N[C@H](C(=O)N[C@@H](Cc1ccc(O)cc1)C(N)=O)[C@@H](C)O)C(C)C)[C@@H](C)O [^25,28,29Pro-h-amylin]
- stability characteristics [3]: more desirable
- amylin activity in vivo (treated test animals): provoking marked hyperlactemia followed by hyperglycemia
- tendency to adsorb onto glass [4]: does not have a tendency to adsorb onto the glass

Compound: des-^1Lys-h-amylin (CNTATCATQRLANFLVHSSNNFGAILSSTNVGSNTY) [human amylin analog of formula I]
- amylin activity in vivo (treated test animals): provoking marked hyperlactemia followed by hyperglycemia

Compound: ^18Arg^25,28Pro-h-amylin (KCNTATCATQRLANFLVRSSNNFGPILPSTNVGSNTY) [human amylin analog of formula I]
- amylin activity in vivo (treated test animals): provoking marked hyperlactemia followed by hyperglycemia

Compound: COc1ccc(C2CNC(=O)C2)cc1OC1CCCC1 (centres unmarked) [rolipram]
- relative time exploring the novel object (memory index), in words (mice [5]): increased the relative time exploring the novel object

Compound: ^28Pro-h-amylin (KCNTATCATQRLANFLVHSSNNFGAILPSTNVGSNTY) [human amylin analog of formula I]
- amylin activity in vivo (treated test animals): provoking marked hyperlactemia followed by hyperglycemia

Compound: CC(C)C[C@H](NC(=O)[C@H](CC(N)=O)NC(=O)[C@H](CC(N)=O)NC(=O)[C@H](CO)NC(=O)[C@H](CO)NC(=O)[C@H](CCCNC(=N)N)NC(=O)[C@@H](NC(=O)[C@H](CC(C)C)NC(=O)[C@H](Cc1ccccc1)NC(=O)[C@H](CC(N)=O)NC(=O)[C@H](C)NC(=O)[C@H](CC(C)C)NC(=O)[C@H](CCCNC(=N)N)NC(=O)[C@H](CCC(N)=O)NC(=O)[C@@H](NC(=O)[C@H](C)NC(=O)[C@@H]1CSSC[C@H](NC(=O)[C@@H](N)CCCCN)C(=O)N[C@@H](CC(N)=O)C(=O)N[C@@H]([C@@H](C)O)C(=O)N[C@@H](C)C(=O)N[C@@H]([C@@H](C)O)C(=O)N1)[C@@H](C)O)C(C)C)C(=O)NCC(=O)N1CCC[C@H]1C(=O)N[C@H](C(=O)N[C@@H](CC(C)C)C(=O)N1CCC[C@H]1C(=O)N1CCC[C@H]1C(=O)N[C@H](C(=O)N[C@@H](CC(N)=O)C(=O)N[C@H](C(=O)NCC(=O)N[C@@H](CO)C(=O)N[C@@H](CC(N)=O)C(=O)N[C@H](C(=O)N[C@@H](Cc1ccc(O)cc1)C(N)=O)[C@@H](C)O)C(C)C)[C@@H](C)O)C(C)C [amylin]
- baseline activity, agent alone (mice [6]): did not affect baseline activity

Compound: CN1CCN(C2=Nc3cc(Cl)ccc3Nc3ccccc32)CC1 [clozapine]
- weight gain compared to vehicle-treated rats [7]: increased weight gain
- baseline activity, agent alone (mice [6]): did affect baseline activity

Reference: patent publication US20090181890A1, “Amylin and Amylin Agonists for Treating Psychiatric Diseases and Disorders” (Amylin Pharmaceuticals , Inc., priority 2006, published 2009)
